Source: US11912703B2, “6-azaindole compounds” (BRISTOL-MYERS SQUIBB COMPANY, priority 2017, dated 2024)
Like-named read-outs stand apart in the source and are kept apart here.

How the values were obtained:
human TLR9 = human TLR9 (Homo sapiens (Human), UniProt Q9NR96); assay: TLR9 inhibition reporter assay (HEK-Blue SEAP);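 note: SEAP driven by IFN-β minimal promoter carrying five NF-κB and AP-1 sites, 22 h at 37 °C, compounds 0.05 nM–50 µM, inhibition scaled between agonist-plus-DMSO and reference-inhibitor wells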
Experimental: (§1) HEK-Blue™-cells (Invivogen) overexpressing human TLR7, TLR8 or TLR9 receptors were used for screening inhibitors of these receptors using an inducible SEAP (secreted embryonic alkaline phosphatase) reporter gene under the control of the IFN-β minimal promoter fused to five NF-κB and AP-1-binding sites. Briefly, cells are seeded into Greiner 384 well plates (15000 cells per well for TLR7, 20,000 for TLR8 and 25,000 for TLR9) and then treated with test compounds in DMSO to yield a final dose response concentration range of 0.05 nM-50 μM. After a 30 minute compound pre-treatment at room temperature, the cells are then stimulated with a TLR7 ligand (gardiquimod at a final concentration of 7.5 μM), TLR8 ligand (R848 at a final concentration of 15.9 μM) or TLR9 ligand (ODN2006 at a final concentration of 5 nM) to activate NF-κB and AP-1 which induce the production of SEAP. After a 22 hour incubation at 37° C., 500 CO2, SEAP levels are determined with the addition of HEK-Blue™ Detection reagent (Invivogen), a cell culture medium that allows for detection of SEAP, according to manufacturer's specifications.

human TLR8 = human TLR8 (Homo sapiens (Human), UniProt Q9NR97); assay: TLR8 inhibition reporter assay (HEK-Blue SEAP);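 note: SEAP driven by IFN-β minimal promoter with five NF-κB and AP-1 sites, compounds tested 0.05 nM to 50 µM, 22 h incubation, inhibition relative to agonist plus DMSO wells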
Experimental: as §1

human TLR7 = human TLR7 (Homo sapiens (Human), UniProt Q9NYK1); assay: TLR7 inhibition reporter assay (HEK-Blue SEAP); assay type: cell-based; details: HEK-Blue cells overexpressing human TLR7, gardiquimod 7.5 μM stimulation
Experimental: as §1

[1] = read-out: TLR9 IC50; HEK-Blue cells overexpressing human TLR9, ODN2006 5 nM stimulation, SEAP reporter
[2] = read-out: TLR8 IC50; HEK-Blue cells overexpressing human TLR8, R848 15.9 μM stimulation, SEAP reporter
[3] = read-out: TLR9 IC50; HEK-Blue cells overexpressing human TLR9; ODN2006 5 nM stimulation; SEAP reporter
[4] = read-out: TLR8 IC50; HEK-Blue cells overexpressing human TLR8; R848 15.9 μM stimulation; SEAP reporter

Chain of human TLR7 (Q9NYK1 27-1049): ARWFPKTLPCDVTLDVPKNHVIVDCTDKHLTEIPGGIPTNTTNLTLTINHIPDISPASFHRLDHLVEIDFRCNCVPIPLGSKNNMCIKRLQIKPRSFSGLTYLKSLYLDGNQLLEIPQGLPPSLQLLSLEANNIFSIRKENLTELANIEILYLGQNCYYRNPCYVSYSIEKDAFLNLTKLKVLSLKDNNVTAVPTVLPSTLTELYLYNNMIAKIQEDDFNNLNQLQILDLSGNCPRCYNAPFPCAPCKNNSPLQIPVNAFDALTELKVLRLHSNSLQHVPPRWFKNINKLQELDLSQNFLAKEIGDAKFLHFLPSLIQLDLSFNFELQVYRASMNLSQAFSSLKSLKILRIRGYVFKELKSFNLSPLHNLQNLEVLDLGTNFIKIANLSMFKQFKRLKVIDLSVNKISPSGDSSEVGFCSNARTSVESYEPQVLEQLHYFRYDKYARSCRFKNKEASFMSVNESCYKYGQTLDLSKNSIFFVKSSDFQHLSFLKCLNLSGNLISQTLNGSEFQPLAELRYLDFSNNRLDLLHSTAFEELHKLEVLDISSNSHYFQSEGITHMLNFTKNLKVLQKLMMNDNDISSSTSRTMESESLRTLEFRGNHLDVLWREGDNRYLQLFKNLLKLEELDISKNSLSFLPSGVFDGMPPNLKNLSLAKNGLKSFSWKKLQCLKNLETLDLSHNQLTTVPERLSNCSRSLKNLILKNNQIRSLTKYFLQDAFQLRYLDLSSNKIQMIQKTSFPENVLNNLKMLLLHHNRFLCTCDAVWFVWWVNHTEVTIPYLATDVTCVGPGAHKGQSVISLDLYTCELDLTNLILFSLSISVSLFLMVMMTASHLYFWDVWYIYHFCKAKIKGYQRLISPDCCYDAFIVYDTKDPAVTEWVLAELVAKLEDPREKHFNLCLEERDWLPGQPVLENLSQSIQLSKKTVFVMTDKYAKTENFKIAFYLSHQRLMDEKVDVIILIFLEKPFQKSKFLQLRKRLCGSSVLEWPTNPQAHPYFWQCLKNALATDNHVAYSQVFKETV
Chain of human TLR9 (Q9NR96 26-1032): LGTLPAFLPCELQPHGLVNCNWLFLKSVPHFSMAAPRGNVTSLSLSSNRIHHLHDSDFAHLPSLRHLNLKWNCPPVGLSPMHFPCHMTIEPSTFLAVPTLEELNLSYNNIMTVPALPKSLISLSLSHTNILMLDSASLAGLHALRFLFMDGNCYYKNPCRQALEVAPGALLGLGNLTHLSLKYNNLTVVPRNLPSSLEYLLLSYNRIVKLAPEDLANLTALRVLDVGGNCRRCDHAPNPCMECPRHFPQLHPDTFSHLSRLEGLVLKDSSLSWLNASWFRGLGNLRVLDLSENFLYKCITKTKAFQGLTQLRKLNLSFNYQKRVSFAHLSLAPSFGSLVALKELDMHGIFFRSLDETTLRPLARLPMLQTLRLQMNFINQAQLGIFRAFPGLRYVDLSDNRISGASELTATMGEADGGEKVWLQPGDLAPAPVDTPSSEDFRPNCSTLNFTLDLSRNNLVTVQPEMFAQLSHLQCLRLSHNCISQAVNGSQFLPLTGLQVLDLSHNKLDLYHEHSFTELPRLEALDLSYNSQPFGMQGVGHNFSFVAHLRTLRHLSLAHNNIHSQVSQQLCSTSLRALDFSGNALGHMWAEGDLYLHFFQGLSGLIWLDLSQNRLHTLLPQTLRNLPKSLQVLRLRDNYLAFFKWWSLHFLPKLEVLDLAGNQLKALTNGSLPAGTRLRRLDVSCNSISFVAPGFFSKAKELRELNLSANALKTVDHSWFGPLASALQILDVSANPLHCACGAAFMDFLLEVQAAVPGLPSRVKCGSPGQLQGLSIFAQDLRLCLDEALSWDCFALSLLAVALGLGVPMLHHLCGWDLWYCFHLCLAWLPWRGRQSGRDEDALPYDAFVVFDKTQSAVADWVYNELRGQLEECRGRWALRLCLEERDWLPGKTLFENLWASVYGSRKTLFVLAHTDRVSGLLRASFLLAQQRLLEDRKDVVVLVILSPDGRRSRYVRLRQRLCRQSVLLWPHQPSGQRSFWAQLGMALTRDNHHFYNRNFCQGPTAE
Chain of human TLR8 (Q9NR97 27-1041): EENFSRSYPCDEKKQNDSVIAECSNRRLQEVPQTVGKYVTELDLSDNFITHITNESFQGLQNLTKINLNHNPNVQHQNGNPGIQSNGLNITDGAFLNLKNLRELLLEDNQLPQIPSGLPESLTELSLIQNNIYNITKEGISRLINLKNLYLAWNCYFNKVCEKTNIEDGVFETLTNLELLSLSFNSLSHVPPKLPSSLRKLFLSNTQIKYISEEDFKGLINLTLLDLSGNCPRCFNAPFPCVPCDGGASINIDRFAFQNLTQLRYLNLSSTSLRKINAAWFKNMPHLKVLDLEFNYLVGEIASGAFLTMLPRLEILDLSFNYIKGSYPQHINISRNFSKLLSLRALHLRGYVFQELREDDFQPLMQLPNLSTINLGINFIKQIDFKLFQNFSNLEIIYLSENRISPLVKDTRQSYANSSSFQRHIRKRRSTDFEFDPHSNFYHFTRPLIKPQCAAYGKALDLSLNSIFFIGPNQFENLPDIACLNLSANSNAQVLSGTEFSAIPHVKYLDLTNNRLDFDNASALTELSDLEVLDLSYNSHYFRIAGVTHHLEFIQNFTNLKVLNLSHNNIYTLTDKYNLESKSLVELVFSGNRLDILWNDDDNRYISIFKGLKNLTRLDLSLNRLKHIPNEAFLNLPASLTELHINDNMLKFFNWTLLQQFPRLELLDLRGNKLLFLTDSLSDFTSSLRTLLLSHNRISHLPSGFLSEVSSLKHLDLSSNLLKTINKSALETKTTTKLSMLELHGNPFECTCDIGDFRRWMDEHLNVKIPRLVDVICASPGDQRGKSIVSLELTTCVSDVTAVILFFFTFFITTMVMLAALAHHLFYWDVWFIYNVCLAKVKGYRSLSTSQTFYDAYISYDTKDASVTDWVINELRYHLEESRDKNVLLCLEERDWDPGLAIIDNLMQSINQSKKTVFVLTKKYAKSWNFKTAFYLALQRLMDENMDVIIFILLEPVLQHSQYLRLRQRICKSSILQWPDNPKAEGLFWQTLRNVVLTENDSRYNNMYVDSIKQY

Compound | IC50 (human TLR9; [1]) [nM] | IC50 (human TLR8; [2]) [nM] | IC50 (human TLR7) [nM] | IC50 (human TLR9) [nM] | IC50 (human TLR8) [nM] | IC50 (human TLR9; [3]) [nM] | IC50 (human TLR8; [4]) [nM]
Cc1c(-c2[nH]c3cnc(N4CCN(S(C)(=O)=O)CC4)c(F)c3c2C(C)C)cn2ncnc2c1C [Example 425] | > 50000 | 17 | 13 | – | – | – | –
Cc1c(-c2[nH]c3cnc(N4CCN(CC(C)(C)O)CC4)c(F)c3c2C(C)C)cn2ncnc2c1C [Example 426] | > 50000 | 0.54 | 30 | – | – | – | –
CC(=O)N1CCN(c2ncc3[nH]c(-c4cn5ncnc5c(C)c4C)c(C(C)C)c3c2F)CC1 [Example 427] | > 50000 | 37 | 35 | – | – | – | –
Cc1c(-c2[nH]c3cnc(N4CCN(CC(=O)N(C)C)CC4)c(F)c3c2C(C)C)cn2ncnc2c1C [Example 428] | 39500 | 1.1 | 12 | – | – | – | –
Cc1c(-c2[nH]c3cnc(N4CCN(CC(N)=O)CC4)c(F)c3c2C(C)C)cn2ncnc2c1C [Example 429] | > 50000 | 2.3 | 9.3 | – | – | – | –
Cc1c(-c2[nH]c3cnc(N4CCN(CC(C)(C)C)CC4)c(F)c3c2C(C)C)cn2ncnc2c1C [Example 432] | > 50000 | 2.7 | 102 | – | – | – | –
Cc1c(-c2[nH]c3cnc(N4CC5(CN(CC(F)(F)F)C5)C4)c(F)c3c2C(C)C)cn2ncnc2c1C [Example 434] | > 50000 | 48 | 90 | – | – | – | –
COc1cc(-c2[nH]c3cnc(N4CCN(C(=O)CN5CCOCC5)C[C@H]4C)c(F)c3c2C(C)C)cn2ncnc12 [Example 438] | > 50000 | 13 | 25 | – | – | – | –
COc1cc(-c2[nH]c3cnc(N4CCN(C5COC5)C[C@H]4C)c(F)c3c2C(C)C)cn2ncnc12 [Example 440] | > 50000 | 62 | 11 | – | – | – | –
CNC(=O)CN1CCN(c2ncc3[nH]c(-c4cc(OC)c5ncnn5c4)c(C(C)C)c3c2F)[C@H](C)C1 [Example 445] | > 50000 | 25 | 13 | – | – | – | –
COc1cc(-c2[nH]c3cnc(N4CCN(CC(=O)N(C)C)C[C@H]4C)c(F)c3c2C(C)C)cn2ncnc12 [Example 446] | > 50000 | 21 | 18 | – | – | – | –
COc1cc(-c2[nH]c3cnc(N4CCN(CC(N)=O)C[C@H]4C)c(F)c3c2C(C)C)cn2ncnc12 [Example 447] | > 50000 | 32 | 11 | – | – | – | –
COc1cc(-c2[nH]c3cnc(N4CCN(CC(=O)N5CCOCC5)C[C@H]4C)c(F)c3c2C(C)C)cn2ncnc12 [Example 448] | > 50000 | 22 | 28 | – | – | – | –
COc1cc(-c2[nH]c3cnc(N4CCN(CC(F)(F)F)C[C@H]4C)c(F)c3c2C(C)C)cn2ncnc12 [Example 449] | > 50000 | 171 | 37 | – | – | – | –
COc1cc(-c2[nH]c3cnc(N4CCN(CCS(C)(=O)=O)C[C@H]4C)c(F)c3c2C(C)C)cn2ncnc12 [Example 450] | – | – | 12 | – | – | > 50000 | 39
COc1cc(-c2[nH]c3cnc(N4CCN(CC(C)C)C[C@H]4C)c(F)c3c2C(C)C)cn2ncnc12 [Example 453] | – | – | 16 | – | – | > 50000 | 34
CCCN1CCN(c2ncc3[nH]c(-c4cn5ncnc5c(C)c4C)c(C(C)C)c3c2F)[C@H](C)C1 [Example 455] | – | – | 0.59 | – | – | 14600 | 0.17
Cc1c(-c2[nH]c3cnc(N4CCN(CC(C)C)C[C@H]4C)c(F)c3c2C(C)C)cn2ncnc2c1C [Example 460] | – | – | 10 | – | – | > 50000 | 4.4
Cc1c(-c2[nH]c3cnc(N4CCN(CCS(C)(=O)=O)C[C@H]4C)c(F)c3c2C(C)C)cn2ncnc2c1C [Example 463] | – | – | 9 | – | – | 38800 | 5.2
Cc1c(-c2[nH]c3cnc(N4CCN(CC(=O)N(C)C)C[C@H]4C)c(F)c3c2C(C)C)cn2ncnc2c1C [Example 466] | – | – | 16 | – | – | 47500 | 2.5
Cc1c(-c2[nH]c3cnc(N4CCN(CC(F)(F)F)C[C@H]4C)c(F)c3c2C(C)C)cn2ncnc2c1C [Example 468] | – | – | 43 | – | – | > 50000 | 50
Cc1c(-c2[nH]c3cnc(N4CCN(CC(=O)N5CCOCC5)C[C@H]4C)c(F)c3c2C(C)C)cn2ncnc2c1C [Example 469] | – | – | 13 | – | – | 47900 | 3.5
Cc1c(-c2[nH]c3cnc(N4CCN(C(=O)CN5CCOCC5)C[C@H]4C)c(F)c3c2C(C)C)cn2ncnc2c1C [Example 471] | – | – | 27 | – | – | > 50000 | 2.7

Next, values leading:

IC50 (human TLR9; [1]) [nM] | IC50 (human TLR8; [2]) [nM] | IC50 (human TLR7) [nM] | IC50 (human TLR9) [nM] | IC50 (human TLR8) [nM] | IC50 (human TLR9; [3]) [nM] | IC50 (human TLR8; [4]) [nM] | Compound
6110 | 0.27 | 5.9 | – | – | – | – | Cc1c(-c2[nH]c3cnc(N4CCN(CC5CC5)CC4)c(F)c3c2C(C)C)cn2ncnc2c1C [Example 430]
8180 | 0.32 | 3.5 | – | – | – | – | Cc1c(-c2[nH]c3cnc(N4CCN(C5CCOCC5)CC4)c(F)c3c2C(C)C)cn2ncnc2c1C [Example 431]
6910 | 0.32 | 3 | – | – | – | – | CCN1CCN(c2ncc3[nH]c(-c4cn5ncnc5c(C)c4C)c(C(C)C)c3c2F)CC1 [Example 433]
10300 | 5.1 | 1.8 | – | – | – | – | COc1cc(-c2[nH]c3cnc(N4CCN(C)C[C@H]4C)c(F)c3c2C(C)C)cn2ncnc12 [Example 436]
– | – | 2.6 | 7670 | 6.4 | – | – | CCCN1CCN(c2ncc3[nH]c(-c4cc(OC)c5ncnn5c4)c(C(C)C)c3c2F)[C@H](C)C1 [Example 437]
11200 | 4.3 | 7.1 | – | – | – | – | COc1cc(-c2[nH]c3cnc(N4CCN(C(=O)CN(C)C)C[C@H]4C)c(F)c3c2C(C)C)cn2ncnc12 [Example 439]
7320 | 11 | 4 | – | – | – | – | COc1cc(-c2[nH]c3cnc(N4CCN(C5CCC5)C[C@H]4C)c(F)c3c2C(C)C)cn2ncnc12 [Example 441]
7490 | 7.1 | 2.5 | – | – | – | – | COc1cc(-c2[nH]c3cnc(N4CCN(CC5CC5)C[C@H]4C)c(F)c3c2C(C)C)cn2ncnc12 [Example 442]
6550 | 9.3 | 4 | – | – | – | – | COc1cc(-c2[nH]c3cnc(N4CCN(C(C)C)C[C@H]4C)c(F)c3c2C(C)C)cn2ncnc12 [Example 443]
19900 | 6.7 | 5 | – | – | – | – | COCCN1CCN(c2ncc3[nH]c(-c4cc(OC)c5ncnn5c4)c(C(C)C)c3c2F)[C@H](C)C1 [Example 444]
– | – | 2.6 | – | – | 792 | 5.7 | COc1cc(-c2[nH]c3cnc(N4CCN(C5CCN(C(C)C)CC5)C[C@H]4C)c(F)c3c2C(C)C)cn2ncnc12 [Example 451]
– | – | 4.8 | – | – | 12600 | 11 | COc1cc(-c2[nH]c3cnc(N4CCN(C5CCOCC5)C[C@H]4C)c(F)c3c2C(C)C)cn2ncnc12 [Example 452]
– | – | 0.05 | – | – | 10900 | 0.05 | Cc1c(-c2[nH]c3cnc(N4CCN(C)C[C@H]4C)c(F)c3c2C(C)C)cn2ncnc2c1C [Example 454]
– | – | 5.7 | – | – | 16300 | 1.6 | Cc1c(-c2[nH]c3cnc(N4CCN(C5CCOCC5)C[C@H]4C)c(F)c3c2C(C)C)cn2ncnc2c1C [Example 456]
– | – | 3.2 | – | – | 22000 | 2.5 | Cc1c(-c2[nH]c3cnc(N4CCN(C5COC5)C[C@H]4C)c(F)c3c2C(C)C)cn2ncnc2c1C [Example 457]
– | – | 2.5 | – | – | 16800 | 1.2 | Cc1c(-c2[nH]c3cnc(N4CCN(C5CCC5)C[C@H]4C)c(F)c3c2C(C)C)cn2ncnc2c1C [Example 458]
– | – | 1.6 | – | – | 13800 | 0.54 | Cc1c(-c2[nH]c3cnc(N4CCN(CC5CC5)C[C@H]4C)c(F)c3c2C(C)C)cn2ncnc2c1C [Example 459]
– | – | 5.4 | – | – | 9020 | 1.5 | Cc1c(-c2[nH]c3cnc(N4CCN(C(C)C)C[C@H]4C)c(F)c3c2C(C)C)cn2ncnc2c1C [Example 461]
– | – | 1.1 | – | – | 1970 | 1.5 | Cc1c(-c2[nH]c3cnc(N4CCN(C5CCN(C(C)C)CC5)C[C@H]4C)c(F)c3c2C(C)C)cn2ncnc2c1C [Example 462]
– | – | 7.3 | – | – | 44000 | 2.6 | Cc1c(-c2[nH]c3cnc(N4CCN(CC(N)=O)C[C@H]4C)c(F)c3c2C(C)C)cn2ncnc2c1C [Example 464]
– | – | 8.5 | – | – | 47900 | 3.1 | CNC(=O)CN1CCN(c2ncc3[nH]c(-c4cn5ncnc5c(C)c4C)c(C(C)C)c3c2F)[C@H](C)C1 [Example 465]
– | – | 2.8 | – | – | 17100 | 1.4 | Cc1c(-c2[nH]c3cnc(N4CCN(CC#N)C[C@H]4C)c(F)c3c2C(C)C)cn2ncnc2c1C [Example 467]
– | – | 4.9 | – | – | 15500 | 0.49 | Cc1c(-c2[nH]c3cnc(N4CCN(C(=O)CN(C)C)C[C@H]4C)c(F)c3c2C(C)C)cn2ncnc2c1C [Example 470]
– | – | 5.3 | – | – | 46600 | 0.92 | COCCN1CCN(c2ncc3[nH]c(-c4cn5ncnc5c(C)c4C)c(C(C)C)c3c2F)[C@H](C)C1 [Example 472]
3430 | 9.9 | 1.6 | – | – | – | – | COc1cc(-c2[nH]c3cnc(N4CCNC[C@H]4C)c(F)c3c2C(C)C)cn2ncnc12 [compound 354]
5890 | 2.3 | 1.3 | – | – | – | – | COc1cc(-c2[nH]c3cnc(N4CCN(C(=O)CN(C)C)CC4)c(F)c3c2C(C)C)cn2ncnc12 [compound 368]
